Assay results reported in article PMC11768653, “Characterization of the Phosphotransferase from Bacillus subtilis 1101 That Is Responsible for the Biotransformation of Zearalenone” (Toxins, 2025).

Molecular target: T1, ZPH1101 (Bacillus subtilis, UniProt O34796)
T1 construct: gene yvkC; full-length zph1101 in pET29a, N-terminal 6xHis, E. coli BL21(DE3), Ni-NTA, 90 kDa
Assay: HPLC of residual ZEA, Michaelis-Menten fit
Format: biochemical
Conditions: ATP, Mg2+; pH 8.0, 45 °C
Description: HPLC of residual ZEA, Michaelis-Menten fit on ZPH1101 | Michaelis constant (Km), and catalytic constant (kcat) were calculated through fitting to be

T1 sequence (O34796 whole entry): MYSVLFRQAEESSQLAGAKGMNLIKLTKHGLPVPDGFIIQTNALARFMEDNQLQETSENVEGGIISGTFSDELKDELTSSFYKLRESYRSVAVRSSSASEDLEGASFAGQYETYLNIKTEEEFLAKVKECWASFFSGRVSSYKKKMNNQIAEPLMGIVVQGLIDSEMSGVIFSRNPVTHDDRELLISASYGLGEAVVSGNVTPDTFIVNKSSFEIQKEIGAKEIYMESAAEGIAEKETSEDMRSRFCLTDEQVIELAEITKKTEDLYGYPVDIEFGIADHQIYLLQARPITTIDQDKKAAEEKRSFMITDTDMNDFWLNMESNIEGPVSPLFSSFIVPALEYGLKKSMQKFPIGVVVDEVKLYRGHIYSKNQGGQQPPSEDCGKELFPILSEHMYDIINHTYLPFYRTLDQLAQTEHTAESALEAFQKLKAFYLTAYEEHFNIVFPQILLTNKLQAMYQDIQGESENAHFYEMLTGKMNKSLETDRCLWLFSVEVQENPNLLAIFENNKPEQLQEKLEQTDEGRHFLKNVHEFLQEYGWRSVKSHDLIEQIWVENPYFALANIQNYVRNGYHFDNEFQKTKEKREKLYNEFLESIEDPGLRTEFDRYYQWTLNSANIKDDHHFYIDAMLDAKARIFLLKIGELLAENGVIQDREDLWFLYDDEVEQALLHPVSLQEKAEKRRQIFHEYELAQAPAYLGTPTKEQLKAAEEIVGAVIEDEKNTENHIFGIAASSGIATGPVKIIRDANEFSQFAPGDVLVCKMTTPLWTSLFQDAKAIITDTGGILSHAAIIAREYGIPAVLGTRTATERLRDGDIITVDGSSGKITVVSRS

C[C@H]1CCCC(=O)CCC/C=C/c2cc(O)cc(O)c2C(=O)O1 [zearalenone]
Km: 18.2 µM
